The results in this text go back to US5024839A, “Dactylocycline A and dactylocycline B” (E. R. Squibb & Sons, Inc., priority 1987, dated 1991).

Values after ≈ are worked out from the molar mass of the structure shown. Where only a bound is given, the exact number is not on record here.

For orientation: MIC means the lowest concentration that inhibits growth of the organism. Low values mean inhibition by little substance, high ones a need for much substance.

Common to all, as to type: cell-based
The test system of assay [1] is Staphylococcus aureus SC10016. In words: MIC (agar dilution, K-10 agar). The procedure: (§1) The following methodology was used to determine the minimum inhibitory concentration (hereinafter referred to as MIC) of the compounds of this invention. The test organisms were grown in 20 ml of Antibiotic Assay Broth (Difco) by inoculating the broth (in tubes) with a loopful of the organism from a BHI (Difco) agar slant. The inoculated tubes were incubated at 37° C. for 18 to 24 hours. These cultures are assumed to contain 10^9 colony forming units (CFU) per ml. The cultures were diluted 1:100 to give a final inoculum level of 10^7 CFU; dilutions were made with Yeast Beef Broth (Difco). The test compounds were dissolved in an appropriate diluent at a concentration of 1,000 μg/ml. Two-fold dilutions were made in Yeast Beef Broth (Difco) resulting in a range from 1000 μg/ml to 0.5 μg/ml. A 1.5 ml portion of each dilution was placed into individual petri dishes to which 13.5 ml of K-10 agar was added. The composition of K-10 agar is:
(§2) The final drug concentration in the agar ranged from 100 μg/ml to 0.05 μg/ml. Organism growth control plates containing agar only were prepared and inoculated before and after the test plates. The organisms were applied to agar surface of each plate with a Denly Multipoint Inoculator, which delivers approximately 10^4 CFU on the agar surface.
(§3) The plates were incubated at 37° C. for 18 hours and the MICs determined. The MIC is the lowest concentration of compound inhibiting growth of the organism.
(§4) The test organisms chosen for this study are pairs of tetracycline-sensitive and tetracycline-resistant strains.
On the technique in general: In agar dilution the substance is mixed into plates at graded concentrations.

Assay [2] deals with Staphylococcus aureus SC2399. In words: MIC (agar dilution, K-10 agar). The procedure: as §1, §2, §3, §4
In assay [3] the test system is Staphylococcus aureus SGB 42. In words: MIC (agar dilution, K-10 agar). The method, then: as §1, §2, §3, §4
Assay [4] relates to Staphylococcus aureus SGB 45. Briefly: MIC (agar dilution, K-10 agar). The method, then:
as §1, §2, §3, §4

For assay [5], the system named is Staphylococcus epidermidis SC9052. In words: MIC (agar dilution, K-10 agar). The method, then: as §1, §2, §3, §4
The subject of assay [6] is Staphylococcus epidermidis SC9087. Briefly: MIC (agar dilution, K-10 agar). The method, then: as §1, §2, §3, §4
Assay [7] relates to Streptococcus faecalis SC9011. Briefly: MIC (agar dilution, K-10 agar). The procedure: as §1, §2, §3, §4
Assay [8] deals with Streptococcus faecalis SC9776. Briefly: MIC (agar dilution, K-10 agar). The procedure: as §1, §2, §3, §4
The subject of assay [9] is gram-positive bacteria, including tetracycline-resistant bacteria. In words: Activity against gram-positive bacteria. The procedure:
as §1, §2
The plates were incubated at 37° C. for 18 hours and the MICs determined. […]

Setting [10] is: Staphylococcus aureus SC10016, K-10 agar, approximately 10^4 CFU, 37° C., 18 hours.
Where [11] appears, read: Staphylococcus aureus SC2399, K-10 agar, approximately 10^4 CFU, 37° C., 18 hours.
Setting [12] is: Staphylococcus aureus SGB 42, K-10 agar, approximately 10^4 CFU, 37° C., 18 hours.
[13] abbreviates: Staphylococcus aureus SGB 45, K-10 agar, approximately 10^4 CFU, 37° C., 18 hours.
Where [14] appears, read: Staphylococcus epidermidis SC9052, K-10 agar, approximately 10^4 CFU, 37° C., 18 hours.
The mark [15] stands for this setting: Staphylococcus epidermidis SC9087, K-10 agar, approximately 10^4 CFU, 37° C., 18 hours.
[16] abbreviates: Streptococcus faecalis SC9011, K-10 agar, approximately 10^4 CFU, 37° C., 18 hours.
Where [17] appears, read: Streptococcus faecalis SC9776, K-10 agar, approximately 10^4 CFU, 37° C., 18 hours.

With `COc1cc(O)c2c(c1Cl)C(C)(OC1CC(C)([N+](=O)[O-])C(OC)C(C)O1)C1CC3(O)C(N(C)C)C(=O)C(C(N)=O)=C(O)C3(O)C(=O)C1=C2O` (centres unmarked) [Dactylocycline B], the MIC in assay [1] (setting [10]) was found to be 3.1 µg/mL (≈ 4.35 µM); in [2] (setting [11]) it was 6.3 µg/mL (≈ 8.85 µM); in [3] (setting [12]), 3.1 µg/mL (≈ 4.35 µM); in assay [4] (setting [13]) it was 3.1 µg/mL (≈ 4.35 µM); in assay [5] (setting [14]), 3.1 µg/mL (≈ 4.35 µM); in assay [6] (setting [15]), 3.1 µg/mL (≈ 4.35 µM). For the same compound, the MIC in [7] (setting [16]) and in assay [8] (setting [17]) was 6.3 µg/mL (≈ 8.85 µM) each time. Moreover, the “activity against gram-positive bacteria” value in assay [9] was “active against gram-positive bacteria, including tetracycline-resistant bacteria”.

For `CN(C)[C@@H]1C(O)=C(C(N)=O)C(=O)[C@@]2(O)C(O)=C3C(=O)c4c(O)cccc4[C@@](C)(O)[C@H]3C[C@@H]12` [Tetracycline, reference compound], the MIC in [1] (Staphylococcus aureus, SC10016, 18 h) stood at 100 µg/mL (≈ 225 µM); in assay [2] (Staphylococcus aureus, SC2399, 18 h) it was 0.4 µg/mL (≈ 0.9 µM); in assay [3] (Staphylococcus aureus, SGB42, 18 h) it was 0.2 µg/mL (≈ 0.45 µM); in assay [4] (Staphylococcus aureus, SGB45, 18 h) it was 100 µg/mL (≈ 225 µM); in [5] (Staphylococcus epidermidis, SC9052, 18 h) it was 0.8 µg/mL (≈ 1.8 µM); in assay [6] (Staphylococcus epidermidis, SC9087, 18 h), 50 µg/mL (≈ 113 µM). Moreover, the MIC was 1.6 µg/mL (≈ 3.6 µM) in [7] (Enterococcus faecalis, SC9011, 18 h) and over 100 µg/mL in assay [8] (Enterococcus faecalis, SC9776, 18 h).

With `COc1cc(O)c2c(c1Cl)[C@](C)(O[C@H]1C[C@](C)(NO)[C@@H](OC)[C@H](C)O1)[C@H]1C[C@@]3(O)[C@H](N(C)C)C(=O)C(C(N)=O)=C(O)[C@@]3(O)C(=O)C1=C2O` [Dactylocycline A], the MIC in assay [1] (setting [10]) came out at 6.3 µg/mL (≈ 9.02 µM); in [2] (setting [11]) it was 1.6 µg/mL (≈ 2.29 µM); in assay [3] (setting [12]) it was 1.6 µg/mL (≈ 2.29 µM); in assay [4] (setting [13]) it was 3.1 µg/mL (≈ 4.44 µM); in [5] (setting [14]), 6.3 µg/mL (≈ 9.02 µM); in assay [6] (setting [15]) it was 3.1 µg/mL (≈ 4.44 µM). Further, the MIC in assay [7] (setting [16]) and in assay [8] (setting [17]) was 25 µg/mL (≈ 35.8 µM) throughout. Besides, the “activity against gram-positive bacteria” value in assay [9] was “active against gram-positive bacteria, including tetracycline-resistant bacteria”.
